Reference: patent EP0376518B1, “Phospholipid nucleosides” (ELI LILLY AND COMPANY, priority 1988, dated 1990)

Experiments:
Type in all cases: in vivo
Lewis lung carcinoma = experiment: Test 9: Lewis lung carcinoma in mice; settings: for Toxicity (number of animals which exhibited signs of toxicity): group of 10 mice; for Inhibition (percent inhibition of tumor growth): tumors measured day 11
Excerpt: (§1) Representative compounds of the invention have been tested using murine tumors in female mice to determine their antineoplastic efficacy. Several different tumor systems have been used in these tests, and the compounds have been administered on a number of different dosage schedules. In general, all the tests were started by inoculating female mice with the tumor, subcutaneously. After some number of days delay, intraperitoneal administration of the test compound was begun. Each treatment group consisted of 10 mice, and untreated control groups were included in all experiments. At the completion of the treatment period, the tumors of the control and the treated mice were measured and the mass of them calculated from the measurements. The data are reported here as percent inhibition of tumor growth, based on the tumors of the untreated control mice.
The compound of Example 2 was tested against Lewis lung carcinoma, giving doses on days 1, 5 and 9 after inoculation and measuring the tumors on day 11.

M-5 ovarian carcinoma [1] = experiment: Test 3: M-5 ovarian carcinoma in mice, daily dose; settings: for Toxicity (number of animals which exhibited signs of toxicity): group of 10 mice; for Inhibition (percent inhibition of tumor growth): tumors measured day 15
Excerpt: as §1
The compound of Example 2 was tested against M-5 ovarian carcinoma, giving a daily dose from day 5 to day 14 after inoculation. The tumors were measured on day 15.

colon carcinoma 26 = experiment: Test 5: colon carcinoma 26 in mice; settings: for Toxicity (number of animals which exhibited signs of toxicity): group of 10 mice; for Inhibition (percent inhibition of tumor growth): tumors measured day 13
Excerpt: as §1
The compound of Example 2 was tested against colon carcinoma 26, giving doses on days 3, 8 and 11 after inoculation, and measuring the tumors on day 13.

Madison lung carcinoma = experiment: Test 8: Madison lung carcinoma in mice; settings: for Toxicity (number of animals which exhibited signs of toxicity): group of 10 mice; for Inhibition (percent inhibition of tumor growth): tumors measured day 11
Excerpt: as §1
The compound of Example 2 was tested against Madison lung carcinoma, giving doses on days 1, 5 and 9 after inoculation and measuring the tumors on day 11.

[2] = tested on: X-5563 plasma cell myeloma; experiment: Test 6: X-5563 plasma cell myeloma in mice; settings: for Toxicity (number of animals which exhibited signs of toxicity): group of 10 mice; for Inhibition (percent inhibition of tumor growth): tumors measured day 11
Excerpt: as §1
The compound of Example 2 was tested against X-5563 plasma cell myeloma, giving doses on days 1, 5 and 9 after inoculation and measuring the tumors on day 11.

M-5 ovarian carcinoma [3] = experiment: Test 2: M-5 ovarian carcinoma in mice, three doses; settings: for Toxicity (number of animals which exhibited signs of toxicity): group of 10 mice; for Inhibition (percent inhibition of tumor growth): tumors measured day 15
Excerpt: as §1
The compound of Example 2 was tested against M-5 ovarian carcinoma. Three doses were administered on days 5, 10 and 13 after inoculation, and the tumors were measured on day 15.

6C3HED lymphosarcoma = experiment: Test 4: 6C3HED lymphosarcoma in mice; settings: for Toxicity (number of animals which exhibited signs of toxicity): group of 10 mice; for Inhibition (percent inhibition of tumor growth): tumors measured day 10
Excerpt: as §1
The compound of Example 2 was tested against 6C3HED lymphosarcoma, giving a dose on days 1, 5 and 9 after inoculation, and measuring the tumors on day 10.

[4] = tested on: C3H mammary adenocarcinoma; experiment: Test 7: C3H mammary adenocarcinoma in mice; settings: for Toxicity (number of animals which exhibited signs of toxicity): group of 10 mice; for Inhibition (percent inhibition of tumor growth): tumors measured day 11
Excerpt: as §1
The compound of Example 2 was tested against C3H mammary adenocarcinoma, giving does on days 1, 5 and 9 after inoculation and measuring the tumors on day 11.

M-5 ovarian carcinoma [5] = experiment: Test 1: M-5 ovarian carcinoma in mice, single dose; settings: single dose two days after inoculation; for Toxicity (number of animals which exhibited signs of toxicity): group of 10 mice; for Inhibition (percent inhibition of tumor growth): tumors measured 13 days after inoculation
Excerpt: as §1
The tumor in this test was M-5 ovarian carcinoma; the compounds were administered as a single dose, two days after inoculation, and the tumors were measured 13 days after inoculation.

[6] = 1.8 mg/kg intraperitoneal on days 1, 5 and 9 after inoculation
[7] = 3.8 mg/kg intraperitoneal on days 1, 5 and 9 after inoculation
[8] = 7.5 mg/kg intraperitoneal on days 1, 5 and 9 after inoculation
[9] = 15 mg/kg intraperitoneal on days 1, 5 and 9 after inoculation
[10] = 30 mg/kg intraperitoneal on days 1, 5 and 9 after inoculation
[11] = 0.6 mg/kg intraperitoneal daily from day 5 to day 14 after inoculation
[12] = 1.2 mg/kg intraperitoneal daily from day 5 to day 14 after inoculation
[13] = 2.5 mg/kg intraperitoneal daily from day 5 to day 14 after inoculation
[14] = 5 mg/kg intraperitoneal daily from day 5 to day 14 after inoculation
[15] = 1.8 mg/kg intraperitoneal on days 3, 8 and 11 after inoculation
[16] = 3.8 mg/kg intraperitoneal on days 3, 8 and 11 after inoculation
[17] = 7.5 mg/kg intraperitoneal on days 3, 8 and 11 after inoculation
[18] = 15 mg/kg intraperitoneal on days 3, 8 and 11 after inoculation
[19] = 30 mg/kg intraperitoneal on days 3, 8 and 11 after inoculation
[20] = 1.8 mg/kg intraperitoneal on days 5, 10 and 13 after inoculation
[21] = 3.8 mg/kg intraperitoneal on days 5, 10 and 13 after inoculation
[22] = 7.5 mg/kg intraperitoneal on days 5, 10 and 13 after inoculation
[23] = 15 mg/kg intraperitoneal on days 5, 10 and 13 after inoculation
[24] = 30 mg/kg intraperitoneal on days 5, 10 and 13 after inoculation

For `CCCCCCCCCCCCCCCC(=O)OC[C@H](COP(=O)(O)OP(=O)(O)OC[C@H]1O[C@@H](n2ccc(N)nc2=O)C(F)(F)[C@@H]1O)OC(=O)CCCCCCCCCCCCCCC` [Example 2], the “Toxicity (number of animals which exhibited signs of toxicity)” value (shortened to “Toxicity”) (Lewis lung carcinoma; [6]) was 0/10, the “Inhibition (percent inhibition of tumor growth)” value (Lewis lung carcinoma; [6]) was 6% and the “Toxicity” value (Lewis lung carcinoma; [7]) was 0/10. The “Inhibition (percent inhibition of tumor growth)” value (Lewis lung carcinoma; [7]) was 0%, the “Toxicity” value (Lewis lung carcinoma; [8]) was 0/10 and the “Inhibition (percent inhibition of tumor growth)” value (Lewis lung carcinoma; [8]) was 0%. For the same compound, the “Toxicity” value (Lewis lung carcinoma; [9]) was 0/10, the “Inhibition (percent inhibition of tumor growth)” value (Lewis lung carcinoma; [9]) was 0% and the “Toxicity” value (Lewis lung carcinoma; [10]) was 4/10. For the same compound, the “Inhibition (percent inhibition of tumor growth)” value (Lewis lung carcinoma; [10]) was 41%, the “Toxicity” value (M-5 ovarian carcinoma [1]; [11]) was 0/10 and the “Inhibition (percent inhibition of tumor growth)” value (M-5 ovarian carcinoma [1]; [11]) was 42%. For the same compound, the “Toxicity” value (M-5 ovarian carcinoma [1]; [12]) was 0/10, the “Inhibition (percent inhibition of tumor growth)” value (M-5 ovarian carcinoma [1]; [12]) was 58% and the “Toxicity” value (M-5 ovarian carcinoma [1]; [13]) was 0/10. The “Inhibition (percent inhibition of tumor growth)” value (M-5 ovarian carcinoma [1]; [13]) was 69%, the “Toxicity” value (M-5 ovarian carcinoma [1]; [14]) was 0/10 and the “Inhibition (percent inhibition of tumor growth)” value (M-5 ovarian carcinoma [1]; [14]) was 100%. The “Toxicity” value (M-5 ovarian carcinoma [1]; 10 mg/kg intraperitoneal daily from day 5 to day 14 after inoculation) was 10/10, the “Toxicity” value (colon carcinoma 26; [15]) was 0/10 and the “Inhibition (percent inhibition of tumor growth)” value (colon carcinoma 26; [15]) was 0%. The “Toxicity” value (colon carcinoma 26; [16]) was 0/10, the “Inhibition (percent inhibition of tumor growth)” value (colon carcinoma 26; [16]) was 21% and the “Toxicity” value (colon carcinoma 26; [17]) was 0/10. The “Inhibition (percent inhibition of tumor growth)” value (colon carcinoma 26; [17]) was 28%, the “Toxicity” value (colon carcinoma 26; [18]) was 0/10 and the “Inhibition (percent inhibition of tumor growth)” value (colon carcinoma 26; [18]) was 66%. For the same compound, the “Toxicity” value (colon carcinoma 26; [19]) was 8/10, the “Inhibition (percent inhibition of tumor growth)” value (colon carcinoma 26; [19]) was 89% and the “Toxicity” value (Madison lung carcinoma; [6]) was 0/10. For the same compound, the “Inhibition (percent inhibition of tumor growth)” value (Madison lung carcinoma; [6]) was 12%, the “Toxicity” value (Madison lung carcinoma; [7]) was 0/10 and the “Inhibition (percent inhibition of tumor growth)” value (Madison lung carcinoma; [7]) was 18%. The “Toxicity” value (Madison lung carcinoma; [8]) was 0/10, the “Inhibition (percent inhibition of tumor growth)” value (Madison lung carcinoma; [8]) was 33% and the “Toxicity” value (Madison lung carcinoma; [9]) was 0/10. For the same compound, the “Inhibition (percent inhibition of tumor growth)” value (Madison lung carcinoma; [9]) was 68%, the “Toxicity” value (Madison lung carcinoma; [10]) was 4/10 and the “Inhibition (percent inhibition of tumor growth)” value (Madison lung carcinoma; [10]) was 76%. For the same compound, the “Toxicity” value [2, 6] was 0/10, the “Inhibition (percent inhibition of tumor growth)” value [2, 6] was 0% and the “Toxicity” value [2, 7] was 0/10. The “Inhibition (percent inhibition of tumor growth)” value [2, 7] was 2%, the “Toxicity” value [2, 8] was 0/10 and the “Inhibition (percent inhibition of tumor growth)” value [2, 8] was 68%. The “Toxicity” value [2, 9] was 1/10, the “Inhibition (percent inhibition of tumor growth)” value [2, 9] was 84% and the “Toxicity” value [2, 10] was 9/10. The “Inhibition (percent inhibition of tumor growth)” value [2, 10] was 100%, the “Toxicity” value (M-5 ovarian carcinoma [3]; [20]) was 0/10 and the “Inhibition (percent inhibition of tumor growth)” value (M-5 ovarian carcinoma [3]; [20]) was 22%. For the same compound, the “Toxicity” value (M-5 ovarian carcinoma [3]; [21]) was 0/10, the “Inhibition (percent inhibition of tumor growth)” value (M-5 ovarian carcinoma [3]; [21]) was 55% and the “Toxicity” value (M-5 ovarian carcinoma [3]; [22]) was 0/10. The “Inhibition (percent inhibition of tumor growth)” value (M-5 ovarian carcinoma [3]; [22]) was 61%, the “Toxicity” value (M-5 ovarian carcinoma [3]; [23]) was 0/10 and the “Inhibition (percent inhibition of tumor growth)” value (M-5 ovarian carcinoma [3]; [23]) was 92%. For the same compound, the “Toxicity” value (M-5 ovarian carcinoma [3]; [24]) was 2/10, the “Inhibition (percent inhibition of tumor growth)” value (M-5 ovarian carcinoma [3]; [24]) was 99% and the “Toxicity” value (6C3HED lymphosarcoma; [6]) was 0/10. For the same compound, the “Inhibition (percent inhibition of tumor growth)” value (6C3HED lymphosarcoma; [6]) was 21%, the “Toxicity” value (6C3HED lymphosarcoma; [7]) was 0/10 and the “Inhibition (percent inhibition of tumor growth)” value (6C3HED lymphosarcoma; [7]) was 32%. For the same compound, the “Toxicity” value (6C3HED lymphosarcoma; [8]) was 0/10, the “Inhibition (percent inhibition of tumor growth)” value (6C3HED lymphosarcoma; [8]) was 47% and the “Toxicity” value (6C3HED lymphosarcoma; [9]) was 0/10. The “Inhibition (percent inhibition of tumor growth)” value (6C3HED lymphosarcoma; [9]) was 60%, the “Toxicity” value (6C3HED lymphosarcoma; [10]) was 7/10 and the “Inhibition (percent inhibition of tumor growth)” value (6C3HED lymphosarcoma; [10]) was 98%. The “Toxicity” value [4, 6] was 0/10, the “Inhibition (percent inhibition of tumor growth)” value [4, 6] was 0% and the “Toxicity” value [4, 7] was 0/10. The “Inhibition (percent inhibition of tumor growth)” value [4, 7] was 0%, the “Toxicity” value [4, 8] was 0/10 and the “Inhibition (percent inhibition of tumor growth)” value [4, 8] was 22%. For the same compound, the “Toxicity” value [4, 9] was 0/10, the “Inhibition (percent inhibition of tumor growth)” value [4, 9] was 60% and the “Toxicity” value [4, 10] was 6/10. The “Inhibition (percent inhibition of tumor growth)” value [4, 10] was 100%, the “Toxicity” value (M-5 ovarian carcinoma [5]; 25 mg/kg intraperitoneal) was 0/10 and the “Inhibition (percent inhibition of tumor growth)” value (M-5 ovarian carcinoma [5]; 25 mg/kg intraperitoneal) was 72%. For the same compound, the “Toxicity” value (M-5 ovarian carcinoma [5]; 50 mg/kg intraperitoneal) was 4/10 and the “Inhibition (percent inhibition of tumor growth)” value (M-5 ovarian carcinoma [5]; 50 mg/kg intraperitoneal) was 87%.
`CCCCCCCCCCCCCCCCCCC(COP(=O)(O)OP(=O)(O)OC[C@H]1O[C@@H](n2ccc(N)nc2=O)C(F)(F)[C@@H]1O)OCC` (stereo partly drawn) [Example 3, 2′-Deoxy-2′,2′-difluorocytidine, 5′-(dihydrogen diphosphate), P′-(2-ethoxyeicosyl) ester] was tested, and the “Toxicity” value (M-5 ovarian carcinoma [5]; 50 mg/kg intraperitoneal) was 0/10, the “Inhibition (percent inhibition of tumor growth)” value (M-5 ovarian carcinoma [5]; 50 mg/kg intraperitoneal) was 53% and the “Toxicity” value (M-5 ovarian carcinoma [5]; 100 mg/kg intraperitoneal) was 0/10. The “Inhibition (percent inhibition of tumor growth)” value (M-5 ovarian carcinoma [5]; 100 mg/kg intraperitoneal) was 64%.
